Results on 22 compounds are retold here after patent US9765054B2, “Histone deacetylase inhibitors and compositions and methods of use thereof” (CHDI Foundation, Inc., priority 2011, dated 2017).

The target in assay [1] is human catalytic domain HDAC4 protein (Homo sapiens, UniProt P56524, A743G/DEL730-739/DEL742-742). The experiment in a line: Inhibition of HDAC4 catalytic domain enzymatic activity, Boc-Lys(Tfa)-AMC substrate, fluorescence.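 Further: trypsin releases AMC from deacetylated substrate, fluorescence tracks enzyme activity, 15 min reaction at 37 °C, 100% activity defined by DMSO-only control.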 The note with it: Class IIa selective substrate Boc-Lys(Tfa)-AMC, read-out: Biochemical HDAC-4 IC50.
For assay [2], the system named is cellular histone deacetylase enzymatic activity in Jurkat E6-1 cells. The experiment in a line: Inhibition of cellular HDAC activity, Boc-Lys(Tfa)-AMC substrate, in Jurkat E6-1 cells. The note with it: Homo sapiens, Class IIa selective substrate Boc-Lys(Tfa)-AMC. It counts as cell-based. The source says:
The potency of Class IIa Histone Deacetylase (HDAC) inhibitors is quantified by measuring the cellular histone deacetylase enzymatic activity using the Class IIa selective substrate, Boc-Lys(Tfa)-AMC. After penetration in Jurkat E6-1 cells, the substrate is deacetylated to Boc-Lys-AMC. After cell lysis and cleavage by trypsin, the fluorophore AMC is released from the deacetylated substrate only. The fluoresence of the sample is directly related to the histone deacetylase activity in the sample.
Jurkat E6.1 Cell Culture and Plating.
Jurkat E6.1 cells are cultured according to standard cell culture protocols in Jurkat E6.1 Growth Media (RPMI without phenol red, 10% FBS, 10 mM HEPES, and 1 mM Sodium Pyruvate). Jurkat E6.1 cells are counted using a Coulter Counter and resuspended in Jurkat E6.1 growth media at a concentration of 75,000 cells/35 μl. 35 μl or 75,000 cells is seeded into Greiner microtitre assay plates. The plates are then incubated at 37° C. and 5% CO2 while other assay components are being prepared.
Serially Dilute HDAC Inhibitor Compounds.
Serial dilutions of the HDAC inhibitors and control reference compound (1-(5-(3-((4-(1,3,4-oxadiazol-2-yl)phenoxy)methyl)-1,2,4-oxadiazol-5-yl)thiophen-2-yl)-2,2,2-trifluoroethanone) are made by first resuspending the lyophilized compound to a final concentration of 10 mM in 100% DMSO. Stocks of 70 μl aliquots of the 10 mM compound in DMSO are prepared and stored at −20° C. From one stock aliquot of each compound to be tested and the reference compound, a 16-point serial dilution is prepared according to Table 7 using a 125 μl 16-channel Matrix multi-channel pipette.
2 μl (200×) of each diluted solution and each control (full activity: 100% DMSO alone or full inhibition 1 mM) is stamped into V-bottom polypropylene 384-well compound plates using either the Bravo, Janus, or […] 16-channel Matrix multi-channel pipette. Each well with the 200× compound solution is diluted 1:20 by the addition of 38 μl Jurkat assay buffer+DMSO (9.5% DMSO, RPMI without phenol red, 0.09% FBS, 9 mM Hepes, and 0.9 mM Sodium Pyruvate equilibrated to room temperature)
Prepare 5× (500 μM) Boc-Lys(Tfa)-AMC Substrate.
5× (500 μM) substrate is prepared just prior to the addition to the assay. The 5× substrate is prepared by diluting a 100 mM Boc-Lys(Tfa)-AMC in DMSO solution 1:200 by adding it drop-wise to Jurkat assay medium (RPMI without phenol red, 0.1% FBS, 10 mM Hepes, and 1 mM Sodium Pyruvate equilibrated to 37° C.) while vortexing at slow speed to prevent precipitation.
10 ml of 3× lysis buffer is prepared with 8.8 ml of 3× stock lysis buffer (50 mM Tris-HCl, pH 8.0, 137 mM NaCl, 2.7 mM KCl, 1 mM MgCl2, 1% Nonidet P40 Substitute equilibrated to room temperature) and 1.2 ml of 3 mg/ml Trypsin equilibrated to room temperature.
5 μl of each solution of 1:20 diluted compound from above is transferred to the Greiner microtitre assay plates with 75,000 cells/well using the Bravo. Cells are then incubated for 2 hours at 37° C. and 5% CO2. The assay is then started by adding 10 μl of 5× (500 μM) substrate to the assay plate using either the Bravo or 16-channel Matrix multi-channel pipette. The cells are then incubated for 3 hours at 37° C. and 5% CO2. Next, 25 μl of 3× lysis buffer is added to each well using either the 125 μl 16 channel pipette or the Bravo. The assay plate is then incubated overnight (15-16 hours) at 37° C. and 5% CO2. The following day, the plates are shaken on an orbital shaker for 1 minute at 900 rpm. Finally the top read fluorescence (Excitation: 355 nm, Emission: 460 nm) is measured using PerkinElmer EnVision.

Regarding `Cc1ccn(-c2ccc([C@H]3[C@H](C(=O)NO)[C@@H]3c3ccccc3)cc2)n1` [Compound 79, (1R,2R,3R)—N-Hydroxy-2-(4-(3-methyl-1H-pyrazol-1-yl)phenyl)-3-phenylcyclopropanecarboxamide], the values for the IC50 in assay [1] and in assay [2] were 90 nM and 650 nM, respectively. For `O=C(NO)[C@@H]1[C@H](c2ccccc2)[C@H]1c1ccc(-n2cccn2)cc1` (racemic) [Compound 65, (1R*,2R*,3R*)-2-(4-(1H-pyrazol-1-yl)phenyl)-N-hydroxy-3-phenylcyclopropanecarboxamide] the same measures were 90 nM and 970 nM.

With `Cc1ccccc1[C@H]1[C@H](C(=O)NO)[C@@H]1c1ccccc1` (racemic) [Compound 18a, (1R*,2R*,3R*)—N-Hydroxy-2-phenyl-3-o-tolylcyclopropanecarboxamide], the concentration for half-maximal inhibition (IC50) in assay [1] was found to be 1720 nM; in assay [2], 13200 nM. Turning to `CN1CCOc2cc(-c3ccc([C@H]4[C@H](C(=O)NO)[C@@H]4c4ccccc4)cc3)ccc21` [Compound 54c, (1R,2R,3R)—N-hydroxy-2-(4-(4-methyl-3,4-dihydro-2H-benzo[b][1,4]oxazin-7-yl)phenyl)-3-phenylcyclopropanecarboxamide], the IC50 in assay [1] was found to be 260 nM; in assay [2], 1430 nM. On the same counts, the results for `Cc1cnc(-c2cccc([C@H]3[C@H](C(=O)NO)[C@@H]3c3ccccc3)c2)nc1` [Compound 77, (1R,2R,3R)—N-Hydroxy-2-(3-(5-methylpyrimidin-2-yl)phenyl)-3-phenylcyclopropanecarboxamide] are 160 nM and 780 nM.

With `CC(C)c1nc2ccc([C@H]3[C@H](C(=O)NO)[C@@H]3c3ccccc3)cc2o1` [Compound 39, (1R,2R,3R)—N-hydroxy-2-(2-isopropylbenzo[d]oxazol-6-yl)-3-phenylcyclopropanecarboxamide], the IC50 was 20 nM in assay [1] and 220 nM in assay [2]. On the same counts, the results for `O=C(NO)[C@@H]1[C@H](c2ccccc2)[C@H]1c1ccccc1F` (racemic) [Compound 11b, (1R*,2R*,3R*)-2-(2-Fluorophenyl)-N-hydroxy-3-phenylcyclopropanecarboxamide] are 320 nM and 1830 nM. For the compound `O=C(NO)[C@@H]1[C@H](c2ccccc2)[C@H]1c1ccc(-c2nccc(C(F)(F)F)n2)cc1` (racemic) [Compound 50d, (1R*,2R*,3R*)-2-(4-(4-Trifluoromethylpyrimidin-2-yl)phenyl)-N-hydroxy-3-phenylcyclopropanecarboxamide], the concentration for half-maximal inhibition (IC50) in assay [2] came out at 880 nM. For the compound `Cc1ccc([C@H]2[C@H](C(=O)NO)[C@@H]2c2ccccc2)cc1` (racemic) [Compound 18c, (1R*,2R*,3R*)—N-Hydroxy-2-phenyl-3-p-tolylcyclopropanecarboxamide], the figures for the IC50 in assay [1] and in assay [2] were 150 nM and 2250 nM, respectively. With `C[C@@]1(C(=O)NO)[C@H](c2ccccc2)[C@H]1c1ccc(-c2ncc(F)cn2)cc1` (racemic) [Compound 63, (1R*,2S*,3S*)-2-(4-(5-Fluoropyrimidin-2-yl)phenyl)-N-hydroxy-1-methyl-3-phenylcyclopropanecarboxamide], the IC50 in assay [1] stood at 270 nM; in assay [2] it was 1550 nM. With `O=C(NO)[C@@H]1[C@H](c2ccccc2)[C@H]1c1cnc2ccccn12` [Compound 115, (1R,2R,3R)—N-hydroxy-2-(imidazo[1,2-a]pyridin-3-yl)-3-phenylcyclopropanecarboxamide], the half-inhibitory concentration (IC50) amounted to 550 nM in assay [1] and 6660 nM in assay [2].

As for `O=C(NO)[C@@H]1[C@H](c2ccccc2)[C@H]1c1cccc(N2CCN3CCCC3C2)c1` (relative stereo) [Compound 56f, (1R*,2R*,3R*)-2-(3-(Hexahydropyrrolo[1,2-a]pyrazin-2(1H)-yl)phenyl)-N-hydroxy-3-phenylcyclopropanecarboxamide], the IC50 in assay [1] is 630 nM; in assay [2], 1850 nM. On the same counts, the results for `O=C(NO)[C@@H]1[C@H](c2ccccc2)[C@H]1c1ccc(-c2ncc(C3CC3)cn2)cc1` (racemic) [Compound 50c, (1R*,2R*,3R*)-2-(4-(5-Cyclopropylpyrimidin-2-yl)phenyl)-N-hydroxy-3-phenylcyclopropanecarboxamide] are 220 nM and 810 nM. On the same counts, the results for `O=C(NO)[C@H]1[C@H](c2ccccc2)[C@H]1c1ccccc1F` (racemic) [Compound 13, (1S*,2R*,3R)-2-(2-Fluorophenyl)-N-hydroxy-3-phenylcyclopropanecarboxamide] are 940 nM and 7670 nM. On the same counts, the results for `O=C(NO)[C@@H]1[C@H](c2ccccc2)[C@H]1c1cccc(N2CCCn3nccc32)c1` [Compound 56h, (1R,2R,3R)-2-(3-(6,7-Dihydropyrazolo[1,5-a]pyrimidin-4(5H)-yl)phenyl)-N-hydroxy-3-phenylcyclopropanecarboxamide] are 170 nM and 770 nM.

As for `O=C(NO)[C@H]1[C@H](c2ccc(NCC(F)(F)F)nc2)[C@H]1c1ccccc1F` [Compound 106, (1S,2R,3R)-2-(2-Fluorophenyl)-N-hydroxy-3-(6-((2,2,2-trifluoroethyl)amino)pyridin-3-yl)cyclopropanecarboxamide], the IC50 was found to be 170 nM in assay [1] and 1410 nM in assay [2]. For `CC(C)N1CCN(c2ccc([C@H]3[C@H](C(=O)NO)[C@@H]3c3ccccc3F)cn2)CC1` [Compound 83, (1S,2R,3R)-2-(2-Fluorophenyl)-N-hydroxy-3-(6-(4-isopropylpiperazin-1-yl)pyridin-3-yl)cyclopropanecarboxamide] the same measures were 120 nM and 750 nM. On the same counts, the results for `O=C(NO)[C@@H]1[C@H](c2ccccc2)[C@H]1c1ccc(-c2ccnnc2)cc1` (racemic) [Compound 50g, (1R*,2R*,3R*)—N-Hydroxy-2-phenyl-3-(4-(pyridazin-4-yl)phenyl)cyclopropanecarboxamide] are 110 nM and 660 nM. On the same counts, the results for `O=C(NO)[C@@H]1[C@H](c2ccccc2)[C@H]1c1ccn2cc(C(F)(F)F)nc2c1` [Compound 109, (1R,2R,3R)—N-Hydroxy-2-phenyl-3-(2-(trifluoromethyl)imidazo[1,2-a]pyridin-7-yl)cyclopropanecarboxamide] are 230 nM and 2500 nM. `Cc1cnc(-c2ccc([C@H]3[C@H](C(=O)NO)[C@@H]3c3ccccc3)cc2)nc1` (racemic) [Compound 50k, (1R*,2R*,3R*)—N-Hydroxy-2-(4-(5-methylpyrimidin-2-yl)phenyl)-3-phenylcyclopropanecarboxamide] showed an IC50 in assay [2] of 480 nM. For `O=C(NO)[C@H]1[C@H](c2ccccc2)[C@H]1C1CCCCC1` (racemic) [Compound 5, (1R*,2R*,3R*)-2-Cyclohexyl-N-hydroxy-3-phenylcyclopropanecarboxamide], the IC50 in assay [1] came out at 6220 nM; in assay [2] it was 36900 nM.

With `O=C(NO)[C@@H]1[C@H](c2ccccc2)[C@H]1c1ccc(-c2ncc(Cl)cn2)cc1` [Compound 50j, (1R,2R,3R)-2-(4-(5-Chloropyrimidin-2-yl)phenyl)-N-hydroxy-3-phenylcyclopropanecarboxamide], the half-maximal inhibitory concentration (IC50) in assay [2] was found to be 420 nM.

As usually defined, the IC50 is the point on the concentration scale where inhibition reaches its midpoint.
